Like-named read-outs stand apart in the source and are kept apart here.
Tests used:
[1] = test system: BCL2; conditions: 10 μM
Protocol: (§1) Total protein lysates were obtained from cells by lysing the samples in cold RIPA buffer (50 mM Tris-HCl, 150 mM NaCl, 1 mM EDTA, 1% Triton X-100 and 0.1% SDS), in the presence of PMSF, sodium orthovanadate, protease and phosphatase inhibitors. After being re-suspended in RIPA cells were briefly sonicated. Protein concentration was evaluated by a BCA assay (Pierce). For immunoprecipitation, TRAF6 or IRAK1 antibodies (2 μg) were added to cell lysates (10 mg) for 3 h at 4° C. and captured by the addition of Protein A/G Plus beads (sc-2003; Santa Cruz) as described before (Starczynowski et al., 2011). The immune complexes were washed with lysis buffer followed by the addition of SDS sample buffer. The bound proteins were separated by SDS-polyacrylamide gel electrophoresis, transferred to nitrocellulose membranes, and analyzed by immunoblotting. Western blot analysis was performed with the following antibodies: TRAF6 (sc-7221; Santa Cruz), IRAK1 (sc-7883; Santa Cruz), ubiquitin (sc-8017; Santa Cruz), IKKβ (2370; Cell Signaling Technology), GAPDH (5174; Cell Signaling Technology), p38 MAPK (9212; Cell Signaling Technology), phopho-p38 MAPK (4631; Cell Signaling Technology), phospho-IKKα/β (2697; Cell Signaling Technology), phospho-IRAK1 (S376) (PAB0497; Abnova), phospho-IRAK1 (T209) (A1074; AssaybioTech), phospho-ERK (4695; Cell Signaling Technology), Lck (2752; Cell Signaling Technology), phospho-Lck (Tyr505) (2751; Cell Signaling Technology), IRAK4 (4363; Cell Signaling Technology), phospho-IRAK4 (Thr345/Ser346) (7652; Cell Signaling Technology), Src (2102; Cell Signaling Technology), Phospho-Src (Tyr416) (2113; Cell Signaling Technology), BCL-2 (2870; Cell Signaling Technology) and Actin (4968; Cell Signaling Technology).

[2] = target: IRAK1 (pIRAK1T209) (Homo sapiens, UniProt P51617)
Protocol: as §1

[3] = test system: TRAF6/NF-κB signaling
Protocol: as §1

[4] = test system: MDS/AML cell lines (MDSL, TF1, THP1, HL60); assay: Viable cell growth (trypan blue exclusion) of MDS/AML cell lines; format: cell-based, human
Protocol: Acute myeloid leukemic cell lines, HL60, THP1, and TF-1 were purchased from the American Type Culture Collection. MOLM13 were purchased from AddexBio. The myelodysplastic cell line, MDS-L, was provided by Dr. Kaoru Tohyama (Kawasaki Medical School, Okayama, Japan) (Matsuoka et al., 2010). […] Additionally, both the MDSL and TF-1 cell lines were cultured in the presence of 10 ng/mL human recombinant IL-3 (Stemcell Technologies).

[5] = test system: normal cord blood-derived CD34+ cells; assay: Growth and viability of normal CD34+ cells; format: cell-based, human; conditions: even high doses
Protocol: Acute myeloid leukemic cell lines, HL60, THP1, and TF-1 were purchased from the American Type Culture Collection. MOLM13 were purchased from AddexBio. The myelodysplastic cell line, MDS-L, was provided by Dr. Kaoru Tohyama (Kawasaki Medical School, Okayama, Japan) (Matsuoka et al., 2010). Cell-lines were cultured in RPMI 1640 medium with 10% FBS and 1% penicillin-streptomycin. Additionally, both the MDSL and TF-1 cell lines were cultured in the presence of 10 ng/mL human recombinant IL-3 (Stemcell Technologies). […] Human CD34+ UCB cells and primary MDS/AML cells were maintained in StemSpan Serum-Free Expansion Media (Stemcell Technologies) supplemented with 10 ng/mL of recombinant human stem cell factor (SCF), Flt3 ligand (Flt3L), thrombopoietin (TPO), IL-3, and IL-6 (Stemcell Technologies).

[6] = test system: MDS/AML cell lines; assay: AnnexinV apoptosis staining of MDS/AML cell lines; format: cell-based, human; conditions: all cell lines, 48 hrs of treatment, 10 μM
Protocol: Cells were stained after either drug treatment or lentiviral transduction with Annexin V (eBioscience) and propidium iodide (Sigma-Aldrich), or 7AAD (eBioscience) according to the manufacturer's instructions. Analysis was performed using BD FACSCalibur or FACSCanto flow cytometer with either CellQuest or Diva software.

[7] = test system: AML patient cells; assay: Colony formation in methylcellulose, primary AML cells; format: cell-based, human
Excerpt: We evaluated marrow cells from 7 MDS and 3 AML patient samples with various cytogenetic features to determine whether IRAK1 inhibition is also effective in primary patient cells (Table S1). […] Since MDS and AML stem/progenitor cells are clonal and the disease-propagating cells form colonies in methylcellulose, we also evaluated the effects of IRAK-Inh on colony formation.

[8] = test system: MDSL cells; assay: MDSL xenograft, cells pre-treated in vitro, NSGS mice; format: in vivo
Protocol: Xenograftment of NOD/SCID-IL2Rγ(NSG) and NSG-hSCF/hGM-CSF/hIL3 (NSGS) MDSL cells (1×10^6-5×10^6) were injected into the tail veins of 8-week old sublethally irradiated ([…]) NSG or NSG animals engineered to express human SCF, GM-CSF, and IL3 (NSGS) as previously described (Wunderlich et al., 2010). Mice were monitored by performing complete blood counts (Drew Hemavet 950FS). Following red cell lysis, human MDSL cells were identified by hCD45-FITC staining. In vivo delivery of IRAK-Inh approach is adapted from previous reports (Yang et al., 2011): IRAK-Inh was diluted in DMSO (5 mM) and further dissolved in sterile phosphate buffered saline (PBS; pH 7.2). Animals were injected i.p. with 2.12 mg/kg IRAK-Inh 3× weekly.
To determine whether IRAK-Inh can delay human MDS-like disease in vivo, MDSL were pre-treated with IRAK-Inh (10 μM) for 24 hrs in vitro and subsequently injected intravenously (i.v.) into NSG (5×10^6 cells) and NSGS (1×10^6 cells) recipient mice (FIG. 4A). This approach permitted us to evaluate the cell autonomous effect of IRAK-Inh on MDS cell viability and engraftment without altering endogenous IRAK1 function in the mouse.
Moreover, we investigated whether combined IRAK1 and BCL2 inhibition could delay human MDS-like disease in vivo. MDSL cells were treated with IRAK-Inh (10 μM) and/or ABT-263 (0.1 μM) for 48 hrs in vitro and subsequently injected i.v. into NSGS mice (FIG. 4A).

[9] = target: IRAK1 (Homo sapiens, UniProt P51617); conditions: Powers et al., 2006, cited from earlier work
[10] = test system: normal CD34+ cells; assay: Colony formation in methylcellulose, normal CD34+ cells
Protocol: The effect of IRAK-Inh on leukemic progenitor function was evaluated in methylcellulose containing IRAK-Inh. […] As an alternative approach, MDS/AML cells were pre-treated with IRAK-Inh for 24 hours and then plated in methylcellulose.

Chain of IRAK1 (pIRAK1T209) (P51617 whole entry): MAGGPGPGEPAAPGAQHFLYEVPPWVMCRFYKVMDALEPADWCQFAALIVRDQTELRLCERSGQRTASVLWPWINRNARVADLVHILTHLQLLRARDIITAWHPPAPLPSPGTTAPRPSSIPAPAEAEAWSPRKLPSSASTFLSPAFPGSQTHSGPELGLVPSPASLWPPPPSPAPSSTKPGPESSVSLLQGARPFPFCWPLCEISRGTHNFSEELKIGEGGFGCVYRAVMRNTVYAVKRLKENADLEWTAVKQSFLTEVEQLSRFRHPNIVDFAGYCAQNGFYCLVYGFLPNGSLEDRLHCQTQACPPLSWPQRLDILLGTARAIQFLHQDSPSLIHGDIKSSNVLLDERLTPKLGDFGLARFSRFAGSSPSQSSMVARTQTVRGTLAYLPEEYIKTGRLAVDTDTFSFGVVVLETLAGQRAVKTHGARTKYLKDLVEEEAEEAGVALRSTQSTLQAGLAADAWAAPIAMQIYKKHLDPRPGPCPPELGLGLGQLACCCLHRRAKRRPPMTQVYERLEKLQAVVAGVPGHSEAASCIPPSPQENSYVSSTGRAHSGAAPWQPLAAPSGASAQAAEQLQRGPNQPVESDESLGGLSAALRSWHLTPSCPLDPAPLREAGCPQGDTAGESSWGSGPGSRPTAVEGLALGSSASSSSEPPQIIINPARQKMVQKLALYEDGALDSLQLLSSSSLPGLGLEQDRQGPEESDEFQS
Chain of IRAK1 (P51617 whole entry, species assumed): as the sequence (P51617 whole entry) above

Which BCL2 expression [1] does the source give for O=C(Nc1nc2ccccc2n1CCN1CCOCC1)c1cccc([N+](=O)[O-])c1 [IRAK-Inh, N-(2-morpholinylethyl)-2-(3-nitrobenzoylamido)-benzimidazole] here?
Its BCL2 expression is “increased in several of the cell lines examined”.

And the “phosphorylated IRAK1 reduced by” value ([2]; 10 μM, 24 hrs, cell lines and patient marrow cells)?
Its value is roughly 70%.

What about the “phosphorylation and K63-linked ubiquitination of immunoprecipitated IRAK1” value ([2]; THP1, 10 μM, 24 hrs) of the same molecule?
The value was “reduced phosphorylation and K63-linked ubiquitination”.

What about the “pIRAK1T209 inhibited by” value ([2]; cells with lentiviral IRAK1 or TRAF6 overexpression) of the same molecule?
Its value is roughly 50%.

And the “kinases with structural homology to IRAK1 targeted in cells” value ([2]; malignant myeloid cells, IRAK1, IRAK4, Src, Lck immunoblots)?
Its value is “only IRAK1 is a target”.

And the “p100/p52 processing (non-canonical NF-κB)” value ([3]; 10 μM for 24 hrs)?
The value was “completely blocked”.

What about the pIKKα/IKKβ ([3]; 10 μM for 24 hrs, vector- and TRAF6-expressing cells) of the same molecule?
The pIKKα/IKKβ was “reduced pIKKα/IKKβ”.

What about the “polyubiquitinated TRAF6” value ([3]; THP1, 10 μM, 24 hrs) of the same molecule?
Its value is “reduced polyubiquitinated TRAF6”.

And the “viability of HL60 cells” value ([4]; HL60)?
Its value is “only modestly reduced”.

What about the “sensitivity of HL60 cells” value ([4]; HL60, IRAK-Inh 10 μM, ABT-263 0.1 μM, alone or combined) of the same molecule?
Its value is “refractory”.

And the “MDS/AML cell line growth and survival” value ([4]; IRAK-Inh 10 μM, ABT-263 0.1 μM, alone or co-treatment)?
Its value is “modest effects”.

And the cell proliferation ([4]; MDSL, TF1 and THP1, 0-10 μM, up to 6 days)?
The cell proliferation was “dose-dependent impairment”.

What about the “proliferation of normal CD34+ cells” value [5] of the same molecule?
Its value is “not affected”.

What about the apoptosis [6] of the same molecule?
Its apoptosis is “modest increase in apoptosis”.

And the AML progenitor function [7]?
Its AML progenitor function is “did not affect”.

What about the “leukemic progenitor function of AML patient cells” value ([7]; IRAK-Inh 10 μM, ABT-263 0.1 μM) of the same molecule?
Its value is “not sensitive”.

And the median survival ([8]; MDSL pre-treated 10 μM 24 hrs, 1×10^6 cells i.v., control 29 days)?
The median survival was 38 days.

What about the median survival ([8]; MDSL treated in vitro with IRAK-Inh 10 μM and/or ABT-263 0.1 μM, DMSO 28 days) of the same molecule?
The median survival was roughly 35 days.

And the “red blood cell numbers, hemoglobin, hematocrit and platelets” value ([8]; mice transplanted with pre-treated MDSL cells)?
The value was “significantly improved”.

What about the IC50 ([9]; read-out: IC50 IRAK1, FIG. 9A legend) of the same molecule?
Its IC50 is 300 nM.

And the IC50 ([9]; read-out: IC50 IRAK1 kinase activity, Wang et al., 2009)?
The IC50 was 750 nM.

And the “control CD34+ cell progenitor function” value [10]?
The value was “did not affect”.

What about the “colony formation, methylcellulose containing inhibitor” value ([10]; normal CD34+) of the same molecule?
Its value is “equivalent number of colonies”.

Reference: patent publication US9855273B2, “Combination therapy for MDS” (priority 2013, dated 2018)
